Results taken from patent publication US20240270821A1, “GIP/GLP1/GCG TRI-RECEPTOR AGONISTS AND USES THEREOF” (priority 2023, published 2024).
Starred links: 1 amine or outer side, 2 acyl side, 3 side chain; linkers in the order of their positions; H or OH if unused. Non-standard residues stand in square brackets, D forms with d. Residues, ends and D or L forms follow the SMILES beside them. Groups on a side chain read outwards from the residue. *: point of attachment. C18 diacid = O=C(O)CCCCCCCCCCCCCCCCC(=O)*; αMePhe(2-F) = C[C@](N)(Cc1ccccc1F)C(=O)O; γGlu = O=C(O)[C@H](CCC(=O)[*:2])N[*:1]; αMeY = C[C@](N)(Cc1ccc(O)cc1)C(=O)O; αMeF = C[C@](N)(Cc1ccccc1)C(=O)O; αMeL = CC(C)C[C@](C)(N)C(=O)O; αMeS = C[C@](N)(CO)C(=O)O; Orn = NCCC[C@H](N)C(=O)O; AEEA = NCCOCCOCC(=O)O; Aib = CC(C)(N)C(=O)O

How the values were obtained:
Format in all cases: cell-based
[1] = target: T1, hGIPR (Homo sapiens, UniProt P48546); assay: Functional cAMP activity in the presence of 1% HSA; details: read-out: cAMP Rel EC50, hGIPR
T1 sequence (P48546 22-466): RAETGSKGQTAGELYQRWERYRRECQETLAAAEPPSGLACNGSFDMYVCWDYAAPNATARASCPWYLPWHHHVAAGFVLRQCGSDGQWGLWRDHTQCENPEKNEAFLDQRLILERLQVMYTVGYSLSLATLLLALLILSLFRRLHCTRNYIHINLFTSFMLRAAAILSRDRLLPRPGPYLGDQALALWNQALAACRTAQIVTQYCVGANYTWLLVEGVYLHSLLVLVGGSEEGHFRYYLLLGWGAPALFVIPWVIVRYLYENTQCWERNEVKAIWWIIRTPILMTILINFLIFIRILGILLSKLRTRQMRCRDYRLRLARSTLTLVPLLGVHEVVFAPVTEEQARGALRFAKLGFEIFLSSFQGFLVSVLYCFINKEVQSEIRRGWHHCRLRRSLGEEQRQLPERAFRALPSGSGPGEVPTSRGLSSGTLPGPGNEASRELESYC

[2] = target: T1, hGIPR; assay: Functional cAMP activation in the presence of 0.1% casein (no HSA); details: read-out: Relative cAMP EC50, hGIPR;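 as to Relative cAMP EC50, hGIPR: intracellular cAMP rise after 30 min at 37 °C read by HTRF against a standard curve, scaled between buffer alone (0%) and top control ligand concentration (100%), four-parameter fit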;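 as to Relative cAMP EC50, hGLP-1R: intracellular cAMP rise after 30 min at 37 °C read by HTRF, normalized between buffer only (0%) and maximal control ligand (100%), four-parameter variable-slope fit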;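 as to Relative cAMP EC50, hGcgR: intracellular cAMP rise after 30 min at 37 °C, read by HTRF against a cAMP standard curve, scaled from buffer only (0%) to maximal control ligand response (100%)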
[3] = target: hGcgR (Homo sapiens, UniProt P47871); assay: as above; details: read-out: Relative cAMP EC50, hGcgR;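 also: intracellular cAMP rise after 30 min at 37 °C, read by HTRF against a cAMP standard curve, scaled from buffer only (0%) to maximal control ligand response (100%)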
[4] = target: T2, hGLP-1R (Homo sapiens, UniProt P43220); assay: Functional cAMP activity in the presence of 1% HSA; details: read-out: cAMP Rel EC50, hGLP-1R
[5] = target: human GcgR (Homo sapiens, UniProt P47871); assay: Functional cAMP activity in the presence of 1% HSA; details: read-out: cAMP Rel EC50, hGcgR
[6] = target: T2, hGLP-1R; assay: Functional cAMP activation in the presence of 0.1% casein (no HSA); details: read-out: Relative cAMP EC50, hGLP-1R;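 as to Relative cAMP EC50, hGIPR: intracellular cAMP rise after 30 min at 37 °C read by HTRF against a standard curve, scaled between buffer alone (0%) and top control ligand concentration (100%), four-parameter fit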;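 as to Relative cAMP EC50, hGLP-1R: intracellular cAMP rise after 30 min at 37 °C read by HTRF, normalized between buffer only (0%) and maximal control ligand (100%), four-parameter variable-slope fit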;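 as to Relative cAMP EC50, hGcgR: intracellular cAMP rise after 30 min at 37 °C, read by HTRF against a cAMP standard curve, scaled from buffer only (0%) to maximal control ligand response (100%)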

T2 sequence (P43220 24-463): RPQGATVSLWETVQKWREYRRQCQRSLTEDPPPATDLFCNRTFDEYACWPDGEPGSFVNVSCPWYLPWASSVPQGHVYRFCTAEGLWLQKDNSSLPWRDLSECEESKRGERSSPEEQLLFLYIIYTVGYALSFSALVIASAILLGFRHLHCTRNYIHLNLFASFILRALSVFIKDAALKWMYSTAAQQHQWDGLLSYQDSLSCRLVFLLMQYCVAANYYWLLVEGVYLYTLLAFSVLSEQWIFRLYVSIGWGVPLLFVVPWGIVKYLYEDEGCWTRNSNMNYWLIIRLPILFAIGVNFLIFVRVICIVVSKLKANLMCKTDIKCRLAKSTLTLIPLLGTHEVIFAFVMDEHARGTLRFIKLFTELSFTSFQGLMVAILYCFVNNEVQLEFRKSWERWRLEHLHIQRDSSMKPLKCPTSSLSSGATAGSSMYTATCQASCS
Chain of human GcgR (P47871 26-477): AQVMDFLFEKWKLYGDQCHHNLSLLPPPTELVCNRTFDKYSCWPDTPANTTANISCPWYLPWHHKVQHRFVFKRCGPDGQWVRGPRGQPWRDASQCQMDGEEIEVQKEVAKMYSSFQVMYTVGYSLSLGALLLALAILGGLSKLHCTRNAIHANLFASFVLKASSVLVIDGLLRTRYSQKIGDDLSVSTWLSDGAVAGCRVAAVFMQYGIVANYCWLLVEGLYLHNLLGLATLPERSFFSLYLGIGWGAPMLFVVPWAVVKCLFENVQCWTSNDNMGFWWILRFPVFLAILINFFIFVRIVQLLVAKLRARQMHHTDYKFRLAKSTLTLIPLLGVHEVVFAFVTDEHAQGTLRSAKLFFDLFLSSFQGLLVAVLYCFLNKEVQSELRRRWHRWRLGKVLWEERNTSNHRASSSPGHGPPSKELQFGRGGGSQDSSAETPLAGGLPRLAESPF
Chain of hGcgR (P47871 26-477): as above

Structure (SMILES)	EC50 [1] [nM]	EC50 [2] [nM]	EC50 [3] [nM]	EC50 [4] [nM]	EC50 [5] [nM]	EC50 [6] [nM]
CC[C@H](C)[C@H](NC(=O)[C@H](Cc1ccccc1)NC(=O)[C@H](C)NC(=O)C(C)(C)NC(=O)[C@H](CCC(N)=O)NC(=O)[C@H](C)NC(=O)[C@H](CCCCNC(=O)COCCOCCNC(=O)CC[C@H](NC(=O)CCCCCCCCCCCCCCCCC(=O)O)C(=O)O)NC(=O)[C@H](CCCCN)NC(=O)[C@H](CC(=O)O)NC(=O)[C@H](CC(C)C)NC(=O)[C@](C)(CC(C)C)NC(=O)[C@@H](NC(=O)[C@H](CO)NC(=O)[C@H](Cc1ccc(O)cc1)NC(=O)[C@H](CC(=O)O)NC(=O)[C@H](CO)NC(=O)[C@@H](NC(=O)[C@](C)(Cc1ccccc1)NC(=O)[C@@H](NC(=O)CNC(=O)[C@H](CCC(N)=O)NC(=O)C(C)(C)NC(=O)[C@@H](N)Cc1ccc(O)cc1)[C@@H](C)O)[C@@H](C)O)[C@@H](C)CC)C(=O)N[C@@H](CCC(=O)O)C(=O)N[C@@H](Cc1ccc(O)cc1)C(=O)N[C@@H](CC(C)C)C(=O)N[C@@H](CCC(=O)O)C(=O)N[C@@H](CCC(=O)O)C(=O)NCC(=O)NCC(=O)N1CCC[C@H]1C(=O)N[C@@H](CO)C(=O)N[C@@H](CO)C(=O)NCC(=O)N[C@@H](C)C(=O)N1CCC[C@H]1C(=O)N1CCC[C@H]1C(=O)N1CCC[C@H]1C(=O)N[C@@H](CCC(=O)O)C(N)=O [Example 396] (H-Y[Aib]QGT[αMeF]TSDYSI[αMeL]LDKK([AEEA-γGlu-C18 diacid])AQ[Aib]AFIEYLEEGGPSSGAPPPE-NH2)	9.5	0.024	4.99	38.2	468	0.293
CC[C@H](C)[C@H](NC(=O)[C@H](Cc1ccccc1)NC(=O)[C@H](C)NC(=O)C(C)(C)NC(=O)[C@H](CCC(N)=O)NC(=O)[C@H](C)NC(=O)[C@H](CCCCNC(=O)COCCOCCNC(=O)CC[C@H](NC(=O)CCCCCCCCCCCCCCCCC(=O)O)C(=O)O)NC(=O)[C@H](CCCN)NC(=O)[C@H](CC(=O)O)NC(=O)[C@H](CC(C)C)NC(=O)[C@](C)(CC(C)C)NC(=O)[C@@H](NC(=O)[C@H](CO)NC(=O)[C@H](Cc1ccc(O)cc1)NC(=O)[C@H](CC(=O)O)NC(=O)[C@H](CO)NC(=O)[C@@H](NC(=O)[C@](C)(Cc1ccccc1)NC(=O)[C@@H](NC(=O)CNC(=O)[C@H](CCC(N)=O)NC(=O)C(C)(C)NC(=O)[C@@H](N)Cc1ccc(O)cc1)[C@@H](C)O)[C@@H](C)O)[C@@H](C)CC)C(=O)N[C@@H](CCC(=O)O)C(=O)N[C@@H](Cc1ccc(O)cc1)C(=O)N[C@@H](CC(C)C)C(=O)N[C@@H](CCC(=O)O)C(=O)N[C@@H](CCC(=O)O)C(=O)NCC(=O)NCC(=O)N1CCC[C@H]1C(=O)N[C@@H](CO)C(=O)N[C@@H](CO)C(=O)NCC(=O)N[C@@H](C)C(=O)N1CCC[C@H]1C(=O)N1CCC[C@H]1C(=O)N1CCC[C@H]1C(=O)N[C@@H](CCC(=O)O)C(N)=O [Example 397] (H-Y[Aib]QGT[αMeF]TSDYSI[αMeL]LD[Orn]K([AEEA-γGlu-C18 diacid])AQ[Aib]AFIEYLEEGGPSSGAPPPE-NH2)	10.1	0.0247	5.22	34.9	1110	0.2
CC[C@H](C)[C@H](NC(=O)[C@H](Cc1ccccc1)NC(=O)[C@H](C)NC(=O)C(C)(C)NC(=O)[C@H](CCC(N)=O)NC(=O)[C@H](C)NC(=O)[C@H](CCCCNC(=O)COCCOCCNC(=O)CC[C@H](NC(=O)CCCCCCCCCCCCCCCCC(=O)O)C(=O)O)NC(=O)[C@H](CCCCN)NC(=O)[C@H](CC(=O)O)NC(=O)[C@H](CC(C)C)NC(=O)[C@H](CC(C)C)NC(=O)[C@@H](NC(=O)[C@H](CO)NC(=O)[C@H](Cc1ccc(O)cc1)NC(=O)[C@H](CC(=O)O)NC(=O)[C@H](CO)NC(=O)[C@@H](NC(=O)[C@](C)(Cc1ccccc1F)NC(=O)[C@@H](NC(=O)CNC(=O)[C@H](CCC(N)=O)NC(=O)C(C)(C)NC(=O)[C@@H](N)Cc1ccc(O)cc1)[C@@H](C)O)[C@@H](C)O)[C@@H](C)CC)C(=O)N[C@@H](CCC(=O)O)C(=O)N[C@@H](Cc1ccc(O)cc1)C(=O)N[C@@H](CC(C)C)C(=O)N[C@@H](CCC(=O)O)C(=O)N[C@@H](CCC(=O)O)C(=O)NCC(=O)NCC(=O)N1CCC[C@H]1C(=O)N[C@@H](CO)C(=O)N[C@@H](CO)C(=O)NCC(=O)N[C@@H](C)C(=O)N1CCC[C@H]1C(=O)N1CCC[C@H]1C(=O)N1CCC[C@H]1C(=O)N[C@@H](CO)C(=O)N[C@@H](CCC(=O)O)C(=O)NCC(N)=O [Example 398]	12.4	0.0318	2.16	42.2	375	0.186
CC[C@H](C)[C@H](NC(=O)[C@H](Cc1ccccc1)NC(=O)[C@H](C)NC(=O)C(C)(C)NC(=O)[C@H](CCC(N)=O)NC(=O)[C@H](C)NC(=O)[C@H](CCCCNC(=O)COCCOCCNC(=O)CC[C@H](NC(=O)CCCCCCCCCCCCCCCCC(=O)O)C(=O)O)NC(=O)[C@H](CCCCN)NC(=O)[C@H](CC(=O)O)NC(=O)[C@H](CC(C)C)NC(=O)[C@](C)(CC(C)C)NC(=O)[C@@H](NC(=O)[C@H](CO)NC(=O)[C@H](Cc1ccc(O)cc1)NC(=O)[C@H](CC(=O)O)NC(=O)[C@H](CO)NC(=O)[C@@H](NC(=O)[C@](C)(Cc1ccccc1F)NC(=O)[C@@H](NC(=O)CNC(=O)[C@H](CCC(N)=O)NC(=O)C(C)(C)NC(=O)[C@@H](N)Cc1ccc(O)cc1)[C@@H](C)O)[C@@H](C)O)[C@@H](C)CC)C(=O)N[C@@H](CCC(=O)O)C(=O)N[C@@H](Cc1ccc(O)cc1)C(=O)N[C@@H](CC(C)C)C(=O)N[C@@H](CCC(=O)O)C(=O)N[C@@H](CCC(=O)O)C(=O)NCC(=O)NCC(=O)N1CCC[C@H]1C(=O)N[C@@H](CO)C(=O)N[C@@H](CO)C(=O)NCC(=O)N[C@@H](C)C(=O)N1CCC[C@H]1C(=O)N1CCC[C@H]1C(=O)N1CCC[C@H]1C(=O)N[C@@H](CCC(=O)O)C(N)=O [Example 400] (H-Y[Aib]QGT[αMePhe(2-F)]TSDYSI[αMeL]LDKK([AEEA-γGlu-C18 diacid])AQ[Aib]AFIEYLEEGGPSSGAPPPE-NH2)	3.86	0.0158	2.53	29.1	265	0.253
CC[C@H](C)[C@H](NC(=O)[C@H](Cc1ccccc1)NC(=O)[C@H](CCCN)NC(=O)C(C)(C)NC(=O)[C@H](CCC(N)=O)NC(=O)[C@H](C)NC(=O)[C@H](CCCCNC(=O)COCCOCCNC(=O)COCCOCCNC(=O)CC[C@H](NC(=O)CCCCCCCCCCCCCCCCC(=O)O)C(=O)O)NC(=O)[C@H](CCCN)NC(=O)[C@H](CC(=O)O)NC(=O)[C@H](CC(C)C)NC(=O)[C@](C)(CC(C)C)NC(=O)[C@@H](NC(=O)[C@](C)(CO)NC(=O)[C@H](Cc1ccc(O)cc1)NC(=O)[C@H](CC(=O)O)NC(=O)[C@H](CO)NC(=O)[C@@H](NC(=O)[C@](C)(Cc1ccccc1F)NC(=O)[C@@H](NC(=O)CNC(=O)[C@H](CCC(N)=O)NC(=O)C(C)(C)NC(=O)[C@@H](N)Cc1ccc(O)cc1)[C@@H](C)O)[C@@H](C)O)[C@@H](C)CC)C(=O)N[C@H](CCC(=O)O)C(=O)N[C@@](C)(Cc1ccc(O)cc1)C(=O)N[C@@H](CC(C)C)C(=O)N[C@@H](CCC(=O)O)C(=O)N[C@@H](CCC(=O)O)C(=O)NCC(=O)NCC(=O)N1CCC[C@H]1C(=O)N[C@@H](CO)C(=O)N[C@@H](CO)C(=O)NCC(=O)N[C@@H](CCC(=O)O)C(=O)N1CCC[C@H]1C(=O)N1CCC[C@H]1C(=O)N1CCC[C@H]1C(=O)N[C@@H](CCC(=O)O)C(N)=O [Example 402] (H-Y[Aib]QGT[αMePhe(2-F)]TSDY[αMeS]I[αMeL]LD[Orn]K([AEEA-AEEA-γGlu-C18 diacid])AQ[Aib][Orn]FI[dE][αMeY]LEEGGPSSGEPPPE-NH2; N-terminus assumed)	44.9	0.123	5.66	86.6	1030	0.725
CC[C@H](C)[C@H](NC(=O)[C@H](Cc1ccccc1)NC(=O)[C@H](C)NC(=O)C(C)(C)NC(=O)[C@H](CCC(N)=O)NC(=O)[C@H](C)NC(=O)[C@H](CCCCNC(=O)CC[C@H](NC(=O)CC[C@H](NC(=O)CCCCCCCCCCCCCCCCC(=O)O)C(=O)O)C(=O)O)NC(=O)[C@H](CCCCN)NC(=O)[C@H](CC(=O)O)NC(=O)[C@H](CC(C)C)NC(=O)[C@H](CC(C)C)NC(=O)[C@@H](NC(=O)[C@H](CO)NC(=O)[C@H](Cc1ccc(O)cc1)NC(=O)[C@H](CC(=O)O)NC(=O)[C@H](CO)NC(=O)[C@@H](NC(=O)[C@](C)(Cc1ccccc1F)NC(=O)[C@@H](NC(=O)CNC(=O)[C@H](CCC(N)=O)NC(=O)C(C)(C)NC(=O)[C@@H](N)Cc1ccc(O)cc1)[C@@H](C)O)[C@@H](C)O)[C@@H](C)CC)C(=O)N[C@@H](CCC(=O)O)C(=O)N[C@@H](Cc1ccc(O)cc1)C(=O)N[C@@H](CC(C)C)C(=O)N[C@@H](CCC(=O)O)C(=O)N[C@@H](CCC(=O)O)C(=O)NCC(=O)NCC(=O)N1CCC[C@H]1C(=O)N[C@@H](CO)C(=O)N[C@@H](CO)C(=O)NCC(=O)N[C@@H](C)C(=O)N1CCC[C@H]1C(=O)N1CCC[C@H]1C(=O)N1CCC[C@H]1C(=O)N[C@@H](CO)C(N)=O [Example 406] (H-Y[Aib]QGT[αMePhe(2-F)]TSDYSILLDKK([γGlu-γGlu-C18 diacid])AQ[Aib]AFIEYLEEGGPSSGAPPPS-NH2)	10.5	0.0233	1.23	27.8	254	0.208
